Data on 17 molecules can be found in PMC9623506, “Development of a novel peptide inhibitor of subtilisin BPN′” (FEBS Open Bio, 2022).

Read-outs that look alike come from different tables or passages of the source. Positions of bridges follow the written chain, without caps; N, C: chain ends. Residues, ends and D or L forms follow the SMILES beside them. No end group written: not given here.

For assay [1], the target named is T1, subtilisin BPN′ (Bacillus amyloliquefaciens, UniProt P00782).
T1 construct: purchased Sigma-Aldrich (Tokyo, Japan)
T1 sequence (P00782 108-382): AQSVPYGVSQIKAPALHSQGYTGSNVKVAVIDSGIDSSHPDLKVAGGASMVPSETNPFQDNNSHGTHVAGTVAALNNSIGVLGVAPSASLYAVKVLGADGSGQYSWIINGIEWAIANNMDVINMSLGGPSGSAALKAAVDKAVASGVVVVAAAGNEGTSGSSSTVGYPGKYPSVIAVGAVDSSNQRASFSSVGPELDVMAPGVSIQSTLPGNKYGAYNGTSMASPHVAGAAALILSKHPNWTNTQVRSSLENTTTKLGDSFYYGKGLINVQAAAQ
The assay is described as follows: biochemical. The format is biochemical. To be noted: for Inhibitory activity / binding in words, by Ki: synthetic substrate N‐suc‐AAPF‐pNA, compared with prototype ASIP or single mutants. On the procedure:
Subtilisin BPN′ and N‐succinyl‐Ala‐Ala‐Pro‐Phe‐p‐nitroanilide (N‐suc‐AAPF‐pNA) were purchased from Sigma‐Aldrich (Tokyo, Japan). The oligopeptides used in this study were synthesized by Eurofins Genomics (Tokyo, Japan). The formation of an S‐S bond in each peptide was accomplished by incubating an equimolar amount of cystine with the peptide, and the concentrations of the oxidized peptides were determined by amino acid analyses after hydrolysis of the peptide with 6 M HCl at 110 °C for 24 h in vacuo.
The inhibitory activities of peptides against subtilisin BPN′ were preliminarily measured using the casein‐Folin method. First, casein was incubated with subtilisin BPN′ in the absence or presence of various molar ratios of synthetic peptides at 37 °C and pH 7.0 for 10 min. Trichloroacetic acid was added to the reaction mixture to precipitate the undigested casein, and the supernatant was mixed with sodium carbonate and Folin's phenol reagent. The absorbance at 660 nm was then measured to determine the amount of peptide obtained by digestion. Inhibitory activity was defined as the reduction in the amount of peptides derived from the enzymatic digestion of casein in the presence of a synthetic peptide when compared to the amount of peptides in the absence of synthetic peptides. To determine the K i values, the proteolytic activities of subtilisin BPN′ in the presence of various molar ratios of synthetic peptides were measured using a synthetic substrate, N‐suc‐AAPF‐pNA, as described previously, and then, the K i values were calculated by nonlinear curve fitting using the Morrison equation [13].

Assay [2] addresses T1, subtilisin BPN′. To be noted: against subtilisin BPN′; cited from earlier work.
Assay [3] concerns the target T1, subtilisin BPN′. Nature of the assay: ASIP without a disulfide bond with subtilisin BPN′: inhibition and cleavage. The format is biochemical. The source says:
To clarify the relationship between disulfide bond formation and its activity as a subtilisin inhibitor, we measured the inhibitory activities of ASIP with or without a disulfide bond. […] The inhibitory properties of the oxidized form of ASIP were then investigated.

A further assay has as its target subtilisin Carlsberg. To be noted: against subtilisin Carlsberg; cited from earlier work. The source says:
Table 3 Proteinaceous subtilisin inhibitors. Amino acid residue lengths, sequences from the P4 to P4′ positions, and K i values against subtilisin BPN′ or Carlsberg of the inhibitors are listed. The most conserved residues at each position are shown in bold font. Residue numbers at the P1 position are indicated by superscript numbers.

Molecule `CC(C)C[C@@H]1NC(=O)[C@@H](NC(=O)[C@H](CO)NC(=O)[C@H](Cc2ccccc2)NC(=O)[C@H](CC(=O)O)NC(=O)[C@@H](N)CO)CSSC[C@@H](C(=O)N[C@@H](CCCNC(=N)N)C(=O)N[C@H](C(=O)O)[C@@H](C)O)NC(=O)CNC(=O)[C@H](CCC(=O)O)NC(=O)[C@H](CO)NC1=O` [ASIP] (H-SDFSCLSEGCRT-OH; disulfide 5-10) yielded a Ki at subtilisin BPN′ [1] of 13 ± 1.64 nM.

`CC(C)C[C@@H]1NC(=O)[C@@H](NC(=O)[C@H](CO)NC(=O)[C@H](Cc2ccccc2)NC(=O)[C@H](CC(=O)O)NC(=O)[C@@H](N)CO)CSSC[C@@H](C(=O)N[C@@H](CCCNC(=N)N)C(=O)N[C@@H](C)C(=O)O)NC(=O)CNC(=O)[C@H](CCC(=O)O)NC(=O)[C@H](C)NC1=O` [S7A + T12A] (H-SDFSCLAEGCRA-OH; disulfide 5-10) had a Ki on subtilisin BPN′ [1] of 2.72 ± 0.04 nM.

In turn, `CC(C)C[C@@H]1NC(=O)[C@@H](NC(=O)[C@H](CO)NC(=O)[C@H](Cc2ccccc2)NC(=O)[C@H](CC(=O)O)NC(=O)[C@@H](N)CO)CSSC[C@@H](C(=O)N[C@@H](CCCNC(=N)N)C(=O)N[C@@H](CCCCN)C(=O)O)NC(=O)CNC(=O)[C@H](CCC(=O)O)NC(=O)[C@H](C)NC1=O` [S7A + T12K] (H-SDFSCLAEGCRK-OH; disulfide 5-10) displayed a Ki on subtilisin BPN′ [1] of 0.3 ± 0.02 nM.

In turn, `CC(C)C[C@@H]1NC(=O)[C@@H](NC(=O)[C@H](CO)NC(=O)[C@H](Cc2ccccc2)NC(=O)[C@H](CC(=O)O)NC(=O)[C@@H](N)CO)CSSC[C@@H](C(=O)N[C@@H](CCCNC(=N)N)C(=O)N[C@H](C(=O)O)[C@@H](C)O)NC(=O)CNC(=O)[C@H](CCC(=O)O)NC(=O)[C@H](C)NC1=O` [S7A] (H-SDFSCLAEGCRT-OH; disulfide 5-10) yielded a Ki at subtilisin BPN′ [1] of 2.58 ± 0.2 nM.

Molecule `CC(C)C[C@@H]1NC(=O)[C@@H](NC(=O)[C@H](CO)NC(=O)[C@H](Cc2ccccc2)NC(=O)[C@H](CC(=O)O)NC(=O)[C@@H](N)CO)CSSC[C@@H](C(=O)N[C@@H](CCCNC(=N)N)C(=O)NCC(=O)O)NC(=O)CNC(=O)[C@H](CCC(=O)O)NC(=O)CNC1=O` [S7G + T12G] (H-SDFSCLGEGCRG-OH; disulfide 5-10) came in with a Ki on subtilisin BPN′ [1] of 7.73 ± 0.34 nM.

As to `CC(C)C[C@@H]1NC(=O)[C@@H](NC(=O)[C@H](CO)NC(=O)[C@H](Cc2ccccc2)NC(=O)[C@H](CC(=O)O)NC(=O)[C@@H](N)CO)CSSC[C@@H](C(=O)N[C@@H](CCCNC(=N)N)C(=O)N[C@H](C(=O)O)[C@@H](C)O)NC(=O)CNC(=O)[C@H](CCC(=O)O)NC(=O)CNC1=O` [S7G] (H-SDFSCLGEGCRT-OH; disulfide 5-10), the Ki on subtilisin BPN′ [1] turned out to be 5.14 ± 0.3 nM.

In turn, `CC(C)C[C@@H]1NC(=O)[C@@H](NC(=O)[C@H](CO)NC(=O)[C@H](Cc2ccccc2)NC(=O)[C@H](CC(=O)O)NC(=O)[C@@H](N)CO)CSSC[C@@H](C(=O)N[C@@H](CCCNC(=N)N)C(=O)N[C@@H](C)C(=O)O)NC(=O)CNC(=O)[C@H](CCC(=O)O)NC(=O)[C@H](CO)NC1=O` [T12A] (H-SDFSCLSEGCRA-OH; disulfide 5-10) displayed a Ki on subtilisin BPN′ [1] of 17.4 ± 1.42 nM.

On to `CC(C)C[C@@H]1NC(=O)[C@@H](NC(=O)[C@H](CO)NC(=O)[C@H](Cc2ccccc2)NC(=O)[C@H](CC(=O)O)NC(=O)[C@@H](N)CO)CSSC[C@@H](C(=O)N[C@@H](CCCNC(=N)N)C(=O)N[C@@H](CC(=O)O)C(=O)O)NC(=O)CNC(=O)[C@H](CCC(=O)O)NC(=O)[C@H](CO)NC1=O` [T12D] (H-SDFSCLSEGCRD-OH; disulfide 5-10), for which, at subtilisin BPN′ [1], the Ki turned out to be 23.1 ± 3.35 nM and the “Inhibitory activity / binding in words, by Ki” value (“Inhibitory activity / binding” below) is listed as “decreased the inhibitory activity”.

On subtilisin BPN′ [1], `CC(C)C[C@@H]1NC(=O)[C@@H](NC(=O)[C@H](CO)NC(=O)[C@H](Cc2ccccc2)NC(=O)[C@H](CC(=O)O)NC(=O)[C@@H](N)CO)CSSC[C@@H](C(=O)N[C@@H](CCCNC(=N)N)C(=O)NCC(=O)O)NC(=O)CNC(=O)[C@H](CCC(=O)O)NC(=O)[C@H](CO)NC1=O` [T12G] (H-SDFSCLSEGCRG-OH; disulfide 5-10) had a Ki of 10.6 ± 0.55 nM.

For `CC(C)C[C@@H]1NC(=O)[C@@H](NC(=O)[C@H](CO)NC(=O)[C@H](Cc2ccccc2)NC(=O)[C@H](CC(=O)O)NC(=O)[C@@H](N)CO)CSSC[C@@H](C(=O)N[C@@H](CCCNC(=N)N)C(=O)N[C@@H](CCCCN)C(=O)O)NC(=O)CNC(=O)[C@H](CCC(=O)O)NC(=O)[C@H](CO)NC1=O` [T12K] (H-SDFSCLSEGCRK-OH; disulfide 5-10), on subtilisin BPN′ [1], affinity was put at a Ki of 5.43 ± 0.29 nM; the “Inhibitory activity / binding” value was “significantly higher inhibition and binding affinity”.

At subtilisin BPN′ [1], `CC(C)C[C@H](NC(=O)[C@H](CCCNC(=N)N)NC(=O)[C@@H]1CSSC[C@H](NC(=O)[C@H](CO)NC(=O)[C@H](Cc2ccccc2)NC(=O)[C@H](CC(=O)O)NC(=O)[C@@H](N)CO)C(=O)N[C@@H](CC(C)C)C(=O)N[C@@H](CO)C(=O)N[C@@H](CCC(=O)O)C(=O)NCC(=O)N1)C(=O)O` [T12L] (H-SDFSCLSEGCRL-OH; disulfide 5-10) returned a Ki of 12.9 ± 1.02 nM.

With `CC(C)C[C@@H]1NC(=O)[C@@H](NC(=O)[C@H](CO)NC(=O)[C@H](Cc2ccccc2)NC(=O)[C@H](CC(=O)O)NC(=O)[C@@H](N)CO)CSSC[C@@H](C(=O)N[C@@H](CCCNC(=N)N)C(=O)N[C@@H](CCCNC(=N)N)C(=O)O)NC(=O)CNC(=O)[C@H](CCC(=O)O)NC(=O)[C@H](CO)NC1=O` [T12R] (H-SDFSCLSEGCRR-OH; disulfide 5-10), on subtilisin BPN′ [1], the Ki is 4.41 ± 0.24 nM; the “Inhibitory activity / binding” value was “significantly higher inhibition and binding affinity”.

Take OMTKY3: turkey ovomucoid third domain: the Ki with subtilisin BPN′ [2] was 0.023 nM.

In the case of “SDFSCLSEGCRT (cysteine pairing not given here) [ASIP without a disulfide bond, ASIP without the Cys5‐Cys10 disulfide bond]”, the “Inhibitory activity against subtilisin BPN′ in words” value on subtilisin BPN′ [3] (ASIP without a disulfide bond, substrate not stated) is “lacked inhibitory activity”. Further, the “Cleavage by subtilisin BPN′” value at subtilisin BPN′ [3] (reduced / linear form of ASIP, cleaved at the peptide bond between Leu6 and Ser7) was “specifically cleaved”.

As to marinostatin (FATMRYPSDSDE) [MST], the Ki with subtilisin BPN′ [2] was 1.5 nM.

B1: SSI: Streptomyces subtilisin inhibitor (protein, UniProt P01006 32-144, looked up)
Subtilisin inhibitor: DAPSALYAPSALVLTVGKGVSATTAAPERAVTLTCAPGPSGTHPAAGSACADLAAVGGDLNALTRGEDVMCPMVYDPVLLTVDGVWQGKRVSYERVFSNECEMNAHGSSVFAF
For B1, the Ki with subtilisin BPN′ [2] is 0.005 nM.

B2: EGL: leech eglin‐C (protein, UniProt P01051 1-70, looked up)
Eglin C: TEFGSELKSFPEVVGKTVDQAREYFTLHYPQYDVYFLPEGSPVTLDLRYNRVRVFYNPGTNVVNHVPHVG
Take B2: the inhibitory constant (Ki) at subtilisin Carlsberg was 0.15 nM.

The term Ki denotes the equilibrium dissociation constant of an inhibitor or competing ligand from its target.
